Biological target: T1, BcXyl (β-xylosidase, anthocyanin-β-glycosidase) (Brunfelsia pauciflora, UniProt A0A6G5NV63)
T1 construct: gene xyl; native purification from stage 2 petals (ammonium sulfate, DEAE, CM); about 72 kDa on SDS-PAGE; cDNA codes for 786 aa with predicted signal peptide 1-27; MS/MS peptides AVSNNFATLMR, LPMTWYPQSYADK, VTQQDLDDTFNPPFK, HYTAYDIDDWK, YEWWSEALHGISYTGPGVK
T1 sequence (A0A6G5NV63 28-785 limits assumed): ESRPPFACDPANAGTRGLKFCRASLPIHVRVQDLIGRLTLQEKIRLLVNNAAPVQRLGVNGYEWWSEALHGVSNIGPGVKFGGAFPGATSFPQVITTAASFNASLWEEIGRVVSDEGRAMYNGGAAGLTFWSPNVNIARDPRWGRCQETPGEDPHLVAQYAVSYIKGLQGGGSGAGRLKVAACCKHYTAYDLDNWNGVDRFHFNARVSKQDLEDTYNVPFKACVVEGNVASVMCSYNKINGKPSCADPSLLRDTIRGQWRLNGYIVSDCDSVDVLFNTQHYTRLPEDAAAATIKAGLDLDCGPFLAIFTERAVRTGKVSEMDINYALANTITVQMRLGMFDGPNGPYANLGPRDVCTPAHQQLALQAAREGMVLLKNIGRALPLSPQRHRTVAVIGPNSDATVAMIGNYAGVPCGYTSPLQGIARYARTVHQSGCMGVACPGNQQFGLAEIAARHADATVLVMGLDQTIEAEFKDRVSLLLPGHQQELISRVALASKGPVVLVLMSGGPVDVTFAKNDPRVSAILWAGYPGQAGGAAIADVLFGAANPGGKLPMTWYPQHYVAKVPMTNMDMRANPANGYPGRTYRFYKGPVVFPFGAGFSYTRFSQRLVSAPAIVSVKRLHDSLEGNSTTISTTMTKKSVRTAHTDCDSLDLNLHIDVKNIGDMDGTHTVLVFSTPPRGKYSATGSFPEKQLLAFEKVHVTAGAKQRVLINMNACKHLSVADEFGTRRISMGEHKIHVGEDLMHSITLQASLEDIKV
Assay: p-nitrophenol release at […] nm
Type: biochemical
Details: read-out: Residual Activity (%)

remaining activity at 1000 µM: 13.2 ± 0.69%
SMILES: O=C(O)[C@H](O)[C@@H](O)[C@H](O)[C@H](O)CO [D-gluconic acid]

— PMC6470699, “BcXyl, a β-xylosidase Isolated from Brunfelsia Calycina Flowers with Anthocyanin-β-glycosidase Activity” (International Journal of Molecular Sciences, 2019)
